{
  "source": "paper PMC5522071",
  "about": "“Preclinical development of G1T38: A novel, potent and selective inhibitor of cyclin dependent kinases 4/6 for use as an oral antineoplastic in patients with CDK4/6 sensitive tumors” (Oncotarget, 2017)",
  "key": {"[1]": {"tested_on": "myeloid progenitors (Mac1+ Gr1+)", "assay": "EdU incorporation in bone marrow", "conditions": "any treatment cohort (10, 50, 100 mg/kg), 7 days, 12 hours post-treatment"}, "H1975 xenograft": {"tested_on": "H1975 xenograft", "assay": "H1975 NSCLC xenograft model", "assay_type": "in vivo, mice", "conditions": "for TGI: single agent, by 18 days of treatment", "text": "To evaluate the efficacy of G1T38 in combination with EGFR inhibitors, the H1975 xenograft model was utilized. H1975 is a human NSCLC that harbors the […] mutations rendering resistance to erlotinib treatment.\nAfatinib is an irreversible second generation pan-ErbB inhibitor developed as a first-line treatment of patients with metastatic NSCLC whose tumors harbor EGFR mutations or deletions as well as in patients with metastatic disease that progressed after platinum-based chemotherapy.\nFemale NCI Ath/nu mice were implanted with H1975 NSC lung adenocarcinoma model. Once tumors reached an average size of 100- 150 mm^3, mice were randomized into treatment cohorts. Mice were orally administered daily afatinib (20 mg/kg, Genentech/OSI), erlotinib (70 mg/kg, LC Labs), or G1T38 (50 or 100 mg/kg), as single agents or in combination (G1T38 + erlotinib or G1T38 + afatinib) for the duration of the study. Tumors were measured twice weekly until mice reached tumor burden of 1500 mm^3."}, "CDK7/Cyclin H/ Mat1": {"target": "T1, CDK7/Cyclin H/ Mat1 (Homo sapiens, UniProt P50613)", "T1 construct": "purchased Nanosyn, Inc. (contract assay)", "T1 sequence (P50613 whole entry)": "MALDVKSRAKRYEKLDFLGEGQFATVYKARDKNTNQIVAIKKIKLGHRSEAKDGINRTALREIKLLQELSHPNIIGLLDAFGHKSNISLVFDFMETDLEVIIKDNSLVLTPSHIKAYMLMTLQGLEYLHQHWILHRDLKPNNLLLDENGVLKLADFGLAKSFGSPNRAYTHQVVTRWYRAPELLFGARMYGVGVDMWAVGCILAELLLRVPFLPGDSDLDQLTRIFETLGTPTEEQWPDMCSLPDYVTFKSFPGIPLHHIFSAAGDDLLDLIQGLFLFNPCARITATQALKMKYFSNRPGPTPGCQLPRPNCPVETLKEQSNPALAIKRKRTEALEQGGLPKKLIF", "T1 sequence (P51946 whole entry partner)": "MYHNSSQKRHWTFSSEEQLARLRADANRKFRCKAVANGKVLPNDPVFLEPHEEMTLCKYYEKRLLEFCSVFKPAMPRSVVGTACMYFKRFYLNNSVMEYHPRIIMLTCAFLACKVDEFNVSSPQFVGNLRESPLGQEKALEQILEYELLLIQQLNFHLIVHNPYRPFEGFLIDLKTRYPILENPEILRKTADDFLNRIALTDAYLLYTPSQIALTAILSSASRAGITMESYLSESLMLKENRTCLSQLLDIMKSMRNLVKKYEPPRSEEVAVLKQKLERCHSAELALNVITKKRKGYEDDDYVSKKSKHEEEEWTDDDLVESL", "T1 sequence (P51948 whole entry partner)": "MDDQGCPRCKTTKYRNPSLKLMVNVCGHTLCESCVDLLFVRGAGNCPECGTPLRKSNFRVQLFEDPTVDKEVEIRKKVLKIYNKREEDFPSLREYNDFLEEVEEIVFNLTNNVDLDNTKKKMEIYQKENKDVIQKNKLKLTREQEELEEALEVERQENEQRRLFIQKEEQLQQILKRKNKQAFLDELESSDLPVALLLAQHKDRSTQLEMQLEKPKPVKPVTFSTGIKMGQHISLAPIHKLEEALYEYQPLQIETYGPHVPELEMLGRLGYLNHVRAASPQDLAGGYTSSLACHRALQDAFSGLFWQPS", "assay_type": "biochemical", "conditions": "12-point dose response, singlicate, at Km for ATP"}, "CDK1/Cyclin B1": {"target": "T2, CDK1/Cyclin B1 (Homo sapiens, UniProt P06493)", "T2 construct": "purchased Nanosyn, Inc. (contract assay)", "T2 sequence (P06493 whole entry)": "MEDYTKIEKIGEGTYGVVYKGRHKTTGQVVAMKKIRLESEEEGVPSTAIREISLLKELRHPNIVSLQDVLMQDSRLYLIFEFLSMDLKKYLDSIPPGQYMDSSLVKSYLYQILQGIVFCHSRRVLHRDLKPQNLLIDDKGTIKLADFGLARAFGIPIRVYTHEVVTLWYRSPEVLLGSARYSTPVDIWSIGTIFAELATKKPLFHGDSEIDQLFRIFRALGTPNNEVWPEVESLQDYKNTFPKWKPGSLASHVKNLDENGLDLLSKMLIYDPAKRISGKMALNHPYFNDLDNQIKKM", "T2 sequence (P14635 whole entry partner)": "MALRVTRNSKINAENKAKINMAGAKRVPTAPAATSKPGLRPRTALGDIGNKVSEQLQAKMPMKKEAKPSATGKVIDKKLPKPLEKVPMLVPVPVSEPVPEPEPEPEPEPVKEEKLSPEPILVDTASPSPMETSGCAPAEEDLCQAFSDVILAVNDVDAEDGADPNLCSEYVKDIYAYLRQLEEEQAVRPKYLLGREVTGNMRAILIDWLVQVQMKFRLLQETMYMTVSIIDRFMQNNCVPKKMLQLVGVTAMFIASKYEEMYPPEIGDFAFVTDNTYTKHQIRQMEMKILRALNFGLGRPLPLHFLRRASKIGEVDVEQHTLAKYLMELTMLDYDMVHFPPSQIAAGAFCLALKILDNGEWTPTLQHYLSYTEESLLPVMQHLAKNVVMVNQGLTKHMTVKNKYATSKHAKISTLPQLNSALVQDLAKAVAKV", "assay_type": "biochemical", "conditions": "12-point dose response, singlicate, at Km for ATP"}, "in vivo": {"assay": "in vivo", "conditions": "po, 100 mg/kg", "protocol": "To evaluate the murine PK/PD relationship of G1T38, an ER^+ MCF7 xenograft model was utilized. Compound concentrations were measured in plasma and tumors from tumor-bearing mice given a single oral dose of G1T38 (100 mg/kg). […] To assess the effects of G1T38 on pRB, tumors were harvested and pRB was analyzed by immunoblotting."}, "[2]": {"assay": "Accumulation potential in plasma, 28-day repeat dose", "conditions": "Rat, 28-day daily oral treatment"}, "CDK2/Cyclin A": {"target": "CDK2/Cyclin A (Homo sapiens, UniProt P24941)", "conditions": "read-out: IC50 CDK2/Cyclin A, Mean; 12-point dose response, singlicate, at Km for ATP", "procedure": "The assays were completed using microfluidic kinase detection technology (Caliper Assay Platform). The compounds were tested in 12-point dose response format in singlicate at the Km for ATP. Phosphoacceptor substrate peptide concentration used was 1 μM and Staurosporine was used as the reference compound for all assays."}},
  "note": "pIC50: −log10 of the molar value.",
  "data": [
    {"smiles": "CC(C)N1CCN(c2ccc(Nc3ncc4cc5n(c4n3)C3(CCCCC3)CNC5=O)nc2)CC1.Cl.Cl", "note": "[G1T38, 2′-((5-(4-isopropylpiperazin-1-yl)pyridin-2-yl)amino)-7′, 8′dihydro-6′Hspiro[cyclohexane1,9′ pyrazino[1′,2′:1,5]pyrrolo[2,3-d]pyrimidin]-6′-one di-hydrochloride]", "values": [
      {"measurement": "myeloid progenitor proliferation compared to vehicle", "setting": "[1]", "value": "no differences"},
      {"measurement": "TGI compared to vehicle, combination with erlotinib", "setting": "H1975 xenograft; 100 mg/kg G1T38 combined with 70 mg/kg erlotinib for 18 days", "value": 80, "unit": "%"},
      {"measurement": "resistance during treatment, combination with afatinib", "setting": "H1975 xenograft; G1T38 50 or 100 mg/kg + afatinib 20 mg/kg, 18 days", "value": "did not develop resistance"},
      {"measurement": "effect on erlotinib resistance", "setting": "H1975 xenograft; G1T38 at any dose combined with 70 mg/kg erlotinib", "value": "the resistance to the erlotinib was reversed"},
      {"measurement": "TGI", "setting": "H1975 xenograft; 50 mg/kg daily oral", "value": 33.3, "unit": "%"},
      {"measurement": "TGI", "setting": "H1975 xenograft; 100 mg/kg daily oral", "value": 60.7, "unit": "%"},
      {"measurement": "pIC50", "setting": "CDK7/Cyclin H/ Mat1", "value": 5.62},
      {"measurement": "pIC50", "setting": "CDK1/Cyclin B1", "value": 5.62},
      {"measurement": "Kp", "setting": "in vivo; C57BL/6, mouse", "value": 17},
      {"measurement": "Kp at 24 h", "setting": "in vivo; C57BL/6, mouse", "value": "> 100"},
      {"measurement": "concentration at 48 h", "setting": "in vivo; C57BL/6, mouse", "value": "~65", "unit": "ng/mL"},
      {"measurement": "drug in the plasma", "setting": "in vivo; mouse", "value": "no drug was detectable"},
      {"measurement": "Mean Accumulation Ratio (AUC0-24hr Day 28 ÷ Day 1)", "setting": "[2]; 2.5 mg/kg", "value": 0.939},
      {"measurement": "Mean Accumulation Ratio (AUC0-24hr Day 28 ÷ Day 1)", "setting": "[2]; 5 mg/kg", "value": 0.958},
      {"measurement": "Mean Accumulation Ratio (AUC0-24hr Day 28 ÷ Day 1)", "setting": "[2]; 15 mg/kg", "value": 1.22},
      {"measurement": "pIC50", "setting": "CDK2/Cyclin A", "value": 5.82}
    ]}
  ]
}
